{"source": "patent US20260069693A1", "about": "“UROLITHINS AND T-CELL MEDIATED IMMUNE RESPONSE” (priority 2022, published 2026)", "key": {"Splenic murine T cells": {"test_system": "Splenic murine T cells", "test": "aCD3/aCD28 stimulation of murine T cells in presence of UA, flow cytometry", "type": "cell-based", "method": "Mitochondrial remodelling has been previously associated with alterations in T cell fate (Buck et al., 2016; Yu et al., 2020b). Given the observed dependency of the UA effect on CD8^+ T cells, the inventors wondered whether UA may also directly affect T cell fate commitment. Purified T cells from FVB mice were stimulated with aCD3/aCD28 beads to induce T cell differentiation into effector T cell subsets in the presence or absence of UA for up to 72 hours (FIG. 2A). […] Previously, a rare naïve-like subset of T cells with enhanced stemness capabilities, termed T memory stem cells (TSCM) has been identified (Gattinoni et al., 2009). TSCM are marked by extreme longevity, their ability to self-renew, and potential for immune reconstitution (Gattinoni et al., 2017) which translates into potent anti-tumor immunity. Phenotypically, TSCM represent a subset of minimally differentiated T cells, which share a CD44^loCD62L^hi phenotype with naïve T cells, but are phenotypically distinct by expressing high levels of Sca1 (Gattinoni et al., 2009). […] This was associated with reduced cyclin D1 expression (not shown), in line with previous observations that link TSCM reprogramming to halted proliferation (Gattinoni et al., 2009; Verma et al., 2021).\nSplenic murine T cells were isolated from mice aged 6-20 weeks by negative selection with EasySep mouse T cell isolation kit (Stem cell) according to the manufacturer's instructions. To monitor T cell proliferation, purified T cells were loaded with CellTrace Violet (C34557 ThermoFisher Scientific). T cell activation was initiated using αCD3/CD28 activation beads (11456D; ThermoFisher Scientific) at a ratio of 25 μl dynabeads per 0.5×10^6 T-cells. Cells were activated with 25-50 μM Urolithin A (Tocris) or DMSO in T cell activation Medium (RPMI (ThermoFisher Scientific) 10% FBS (South America origin), 10 mM Hepes (Sigma), 1× Non-Essential Amino Acid, 1 mM Sodium Pyruvate, 50 μM B-Mercaptoethanol, 100 U/ml penicillin, 100 μg/ml streptomycin and 2 mM Glutamax (ThermoFisher Scientific) for the indicated durations. In selected experiments, cells were stimulated in the presence of inhibitors, namely TCF1i (ICG-001; SelleckChem; 10 μM) and PGC-1αi (SR-18292, Sigma-Aldrich; 10 μm,). For subsequent analysis, activating beads were magnetically removed prior antibody staining. For human T cells, peripheral blood mononuclear cells were purified with a Ficoll-Paque (GE healthcare) gradient. T cells were enriched with EasySep Human T Cell Isolation Kit (StemCell) and activated with dynabead Human T-Activator CD3/CD28 for T Cell Expansion and Activation Kit (11131D; ThermoFisher Scientific), similar to murine T cell stimulation. […]\nFor flow cytometric analysis of mitochondria and lysosomes 500 μl of Mitotracker Red (200 nM; ThermoFisher) or Lysotracker Red DND-99 (75 nM; ThermoFisher) were applied followed by surface staining. To study changes in mitochondrial membrane potential, Mitoprobe TMRM kit (ThermoFisher) was used according to the manufacturer's instructions. Cell proliferation was assessed by CellTrace Violet (Invitrogen, C34557) at a concentration of 5 μM according to manufacturer's instructions. For human samples, cells were stained as described above with Fixable Viability Dye-eF780, αCD95-BV421 (DX2; 562616), αCD62L-PE (DREG-56; 555544), αCCR7-AF700 (150503; 561143), αCD45RO-APC (UCHL; 559865), αCD45RA-FITC (HI100; 555488), αCD8-PE-CF594 (RPA-T8; 562282) and αCD4-BV786 (OKT4; 566806) from BD."}, "CD19-CAR T cells": {"test_system": "CD19-CAR T cells", "type": "cell-based, human"}, "[1]": {"test_system": "CEA-expressing human CRC organoids", "test": "CEA-CAR T cell killing of CRC organoids", "type": "cell-based", "details": "72 h co-culture, UA vs DMSO", "method": "In human CRC organoids, CEA-expression was confirmed by flow cytometry […]CEACAM5-APC (487609; FAB41281A; R&D Systems) Before co-culture, CEA-CAR T cells were cultivated in presence or absence of UA for three days. The cytotoxicity assay was performed as described (Schnalzger et al., 2019), using 96 well plates coated with 15 μl Cultrex Basement Membrane Extract, Type 2 per well and organoids were seeded at a ratio of 1:8. Co-culture was performed for three days with 0.5×10^4 CAR T cells per well resuspended in organoid medium (as described above) without IL7/IL15. 100 μl luciferase assay reagent composed of 10% One-Glo EX Reagent (Promega) in lysis buffer (50 mM NaCl, 50 mM Tris-HCl pH 7.4, 1% Triton X-100) was added to each well and incubated at room temperature for 1 h protected from light. 100 μl of each sample was transferred to an opaque 96-well microtiter plate and measured using a SpectraMax iD3 microplate reader (Molecular Devices)."}, "[2]": {"details": "commercially-available supplements containing UA; cited from earlier work"}, "[3]": {"details": "48 hours in presence of UA, prior to ACT"}, "[4]": {"details": "CD62L+CD44-CD8+ T cells, 48 h, UA 25 μM"}}}
{"smiles": "O=c1oc2cc(O)ccc2c2ccc(O)cc12", "note": "[UA, Urolithin A]", "values": [{"measurement": "TSCM formation, dependence on T cell activation", "setting": "Splenic murine T cells", "result": "only formed in activated T cells"}, {"measurement": "cyclin D1 expression", "setting": "Splenic murine T cells", "result": "reduced"}, {"measurement": "lysosome formation in CD8+ T cells", "setting": "Splenic murine T cells; 6 h, UA 50 μM", "result": "enhanced"}, {"measurement": "loss of mitochondrial content in T cell subsets (TSCM, TCM and TEFF)", "setting": "Splenic murine T cells; 24 h", "result": "detected in all T cell subsets analyzed"}, {"measurement": "number of CD44-CD62L+Sca1hi TSCM", "setting": "Splenic murine T cells; 24 h, 48 h and 72 h after aCD3/aCD28 stimulation", "result": "significantly increased"}, {"measurement": "CD95 expression of CD8+ T cells from OT-1 donors", "setting": "Splenic murine T cells; [3]", "result": "enhanced"}, {"measurement": "TSCM phenotype of CD8+ T cells from OT-1 donors", "setting": "Splenic murine T cells; [3]", "result": "displayed a TSCM phenotype"}, {"measurement": "TSCM formation in CD4+ cells", "setting": "Splenic murine T cells; CD4+ cells", "result": "did not promote enhanced TSCM formation"}, {"measurement": "frequency of TEM cells in CD4+ cells", "setting": "Splenic murine T cells; CD4+ cells, later timepoints", "result": "enhanced frequency"}, {"measurement": "naïve-like CD4+ cells", "setting": "Splenic murine T cells; CD4+ cells, later timepoints", "result": "less"}, {"measurement": "CD95 expression of TSCM", "setting": "Splenic murine T cells; [4]", "result": "increased"}, {"measurement": "mitochondrial membrane potential of TSCM (TMRM)", "setting": "Splenic murine T cells; [4]", "result": "reduced"}, {"measurement": "CD8+ T cell division", "setting": "Splenic murine T cells; CellTrace Violet", "result": "restricted"}, {"measurement": "differentiation into effector T cells (Granzyme B, IFNg expression)", "setting": "Splenic murine T cells; T cells from FVB mice, aCD3/aCD28 beads, 48 h, UA vs DMSO", "result": "blocked"}, {"measurement": "central memory cells (TCM)", "setting": "Splenic murine T cells; aCD3/aCD28, up to 72 hours", "result": "reduction"}, {"measurement": "frequency of effector memory cells (TEM)", "setting": "Splenic murine T cells; aCD3/aCD28, up to 72 hours", "result": "remained unaltered"}, {"measurement": "naïve CD44loCD62Lhi T cells", "setting": "Splenic murine T cells; aCD3/aCD28, up to 72 hours", "result": "significant increase"}, {"measurement": "mitochondrial content (MitoTracker Red) in CD8+ T cells", "setting": "Splenic murine T cells; after 24 hours", "result": "loss of mitochondrial content in a dose-dependent manner"}, {"measurement": "T cell death in vitro", "setting": "Splenic murine T cells; in vitro", "result": "dose-dependent T cell death"}, {"measurement": "PGC-1 expression in CD8+ T cells", "setting": "Splenic murine T cells; prolonged UA administration in vitro, 48 h, 50 μM", "result": "marked upregulation"}, {"measurement": "mitochondrial membrane potential in CD8+ T cells", "setting": "Splenic murine T cells; within six hours, UA 50 μM", "result": "reduction"}, {"measurement": "gene delivery into CD8+ cells", "setting": "CD19-CAR T cells", "result": "did not impair"}, {"measurement": "Markers of exhaustion of CAR T cells", "setting": "CD19-CAR T cells; UA supplementation", "result": "not affected"}, {"measurement": "CAR expressing TSCM cells", "setting": "CD19-CAR T cells; three days post transduction, UA vs DMSO", "result": "markedly increased"}, {"measurement": "CAR expressing TSCM cells, share of CD8+ cells", "setting": "CD19-CAR T cells; three days post transduction, upon UA exposure", "result": "about 60%"}, {"measurement": "killing efficacy of CEA-expressing human CRC organoids", "setting": "[1]", "result": "comparable killing efficacy"}, {"measurement": "bioavailability profile in humans", "setting": "[2]", "result": "favorable bioavailability profile"}, {"measurement": "safety in humans", "setting": "[2]", "result": "deemed safe"}]}
